Assay results taken from patent US10758534B2 (Vertex Pharmaceuticals Incorporated, priority 2014, dated 2020).

These compounds were tested against T1, F508del (Homo sapiens, UniProt P13569, DEL508-508) (assay: Protocol 2: FRET membrane potential optical assay (VIPR), identification of correction compounds). Conditions: Table 3; compounds of Table 1 as modulators of CFTR activity; protocol not stated.
T1 construct: expressed in transfected cells
Type: cell-based
In short: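 Single-addition HTS format: F508del-expressing NIH3T3 cells pre-incubated 16 hrs at 37° C. ± compound, with 27° C. culture as positive control. Channel activation by forskolin 10 μM and genistein 20 μM upon switch to gluconate bath, pH 7.4; read-out is FRET-based depolarization signal.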

T1 sequence (P13569 with tags, fused parts or gaps DEL508-508): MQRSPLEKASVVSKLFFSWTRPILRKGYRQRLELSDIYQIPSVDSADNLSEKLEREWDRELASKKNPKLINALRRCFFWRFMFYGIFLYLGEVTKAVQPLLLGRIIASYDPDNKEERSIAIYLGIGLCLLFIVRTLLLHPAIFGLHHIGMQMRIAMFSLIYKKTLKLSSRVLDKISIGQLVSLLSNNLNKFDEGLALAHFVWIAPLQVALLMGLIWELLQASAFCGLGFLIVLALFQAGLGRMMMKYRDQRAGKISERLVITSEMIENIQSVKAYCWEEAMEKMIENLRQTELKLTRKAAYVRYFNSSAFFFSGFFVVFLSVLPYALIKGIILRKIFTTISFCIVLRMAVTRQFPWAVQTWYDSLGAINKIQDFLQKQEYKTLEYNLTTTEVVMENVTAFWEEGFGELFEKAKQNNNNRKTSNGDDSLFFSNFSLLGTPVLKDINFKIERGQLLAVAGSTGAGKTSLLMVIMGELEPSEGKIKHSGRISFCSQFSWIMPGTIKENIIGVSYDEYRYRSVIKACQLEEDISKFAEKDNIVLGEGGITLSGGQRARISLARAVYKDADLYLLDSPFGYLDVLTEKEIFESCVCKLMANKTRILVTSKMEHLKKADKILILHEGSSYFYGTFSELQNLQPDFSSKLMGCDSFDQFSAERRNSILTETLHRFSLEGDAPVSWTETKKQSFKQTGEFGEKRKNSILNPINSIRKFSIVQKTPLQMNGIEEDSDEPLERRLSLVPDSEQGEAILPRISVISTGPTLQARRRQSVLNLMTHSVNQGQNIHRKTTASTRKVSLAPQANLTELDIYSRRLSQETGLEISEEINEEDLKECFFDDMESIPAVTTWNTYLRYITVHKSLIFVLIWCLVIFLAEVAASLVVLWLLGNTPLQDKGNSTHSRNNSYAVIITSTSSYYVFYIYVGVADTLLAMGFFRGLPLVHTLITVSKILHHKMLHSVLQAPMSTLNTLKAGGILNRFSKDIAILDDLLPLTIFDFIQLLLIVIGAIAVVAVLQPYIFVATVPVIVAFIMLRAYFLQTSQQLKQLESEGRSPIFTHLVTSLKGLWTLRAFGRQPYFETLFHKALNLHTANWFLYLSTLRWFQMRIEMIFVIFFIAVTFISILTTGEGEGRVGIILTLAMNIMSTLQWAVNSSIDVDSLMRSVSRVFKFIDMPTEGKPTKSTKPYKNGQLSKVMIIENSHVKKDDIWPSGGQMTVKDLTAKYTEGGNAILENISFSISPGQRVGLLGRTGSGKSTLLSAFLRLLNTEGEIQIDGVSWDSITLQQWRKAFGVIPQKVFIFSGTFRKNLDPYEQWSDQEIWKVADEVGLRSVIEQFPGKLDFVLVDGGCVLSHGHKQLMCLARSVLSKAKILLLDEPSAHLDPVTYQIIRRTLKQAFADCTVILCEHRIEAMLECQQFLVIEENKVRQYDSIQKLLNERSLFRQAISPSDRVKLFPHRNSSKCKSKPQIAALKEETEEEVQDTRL

| EC30 | SMILES |
| --- | --- |
| +++ (“+++” means <3 uM) | Cc1cccc(C)c1Cn1nc(-c2ccc3c(ccn3C)c2)cc1C(=O)NS(=O)(=O)c1ccccc1 [Compound 263, N-(benzenesulfonyl)-2-[(2,6-dimethylphenyl)methyl]-5-(1-methylindol-5-yl)pyrazole-3-carboxamide] |
| +++ (“+++” means <3 uM) | Cc1cc(C)c(Cn2c(C(=O)NS(=O)(=O)c3ccccc3)cc3ccccc32)c(C)c1 [Compound 264, N-(benzenesulfonyl)-1-[(2,4,6-trimethylphenyl)methyl]indole-2-carboxamide] |
| +++ (“+++” means <3 uM) | Cc1cc(C)c(Oc2nc(C(C)(C)C)ccc2C(=O)NS(=O)(=O)c2nc(N)cs2)c(C)c1 [Compound 265, N-(4-aminothiazol-2-yl)sulfonyl-6-tert-butyl-2-(2,4,6-trimethylphenoxy)pyridine-3-carboxamide] |
| +++ (“+++” means <3 uM) | Cc1cc(C)c(Cn2nc(C(C)(C)C)cc2C(=O)NS(=O)(=O)c2ccccc2C#N)c(C)c1 [Compound 266, 5-tert-butyl-N-(2-cyanophenyl)sulfonyl-2-[(2,4,6-trimethylphenyl)methyl]pyrazole-3-carboxamide] |
| +++ (“+++” means <3 uM) | COc1ncccc1S(=O)(=O)NC(=O)c1cc2cc(C)ccc2n1Cc1c(C)cc(C)cc1C [Compound 267, N-[(2-methoxy-3-pyridyl)sulfonyl]-5-methyl-1-[(2,4,6-trimethylphenyl)methyl]indole-2-carboxamide] |
| +++ (“+++” means <3 uM) | Cc1cc(C)c(Oc2nc(CCc3ccccc3)ccc2C(=O)NS(=O)(=O)c2cccc(N)n2)c(C)c1 [Compound 268, N-[(6-amino-2-pyridyl)sulfonyl]-6-phenethyl-2-(2,4,6-trimethylphenoxy)pyridine-3-carboxamide] |
| +++ (“+++” means <3 uM) | Cc1cc(C)c(Cn2nc(C(C)(C)C)cc2C(=O)NS(=O)(=O)c2ccc(O)cc2)c(C)c1 [Compound 269, 5-tert-butyl-N-(4-hydroxyphenyl)sulfonyl-2-[(2,4,6-trimethylphenyl)methyl]pyrazole-3-carboxamide] |
| +++ (“+++” means <3 uM) | Cc1cc(C)c(Cn2nc(C(C)(C)C)cc2C(=O)NS(=O)(=O)c2cccc(N(C)C)c2)c(C)c1 [Compound 270, 5-tert-butyl-N-[3-(dimethylamino)phenyl]sulfonyl-2-[(2,4,6-trimethylphenyl)methyl]pyrazole-3-carboxamide] |
| +++ (“+++” means <3 uM) | CC(c1ccccc1)c1nc(C(C)(C)C)ccc1C(=O)NS(=O)(=O)c1cccc(N)c1 (stereo not drawn) [Compound 271, N-(3-aminophenyl)sulfonyl-6-tert-butyl-2-(1-phenylethyl)pyridine-3-carboxamide] |
| ++ (“++” means between 3 uM and 10 uM) | CC(C)(C)c1ccc(C(=O)NS(=O)(=O)c2cccc(N)c2)c(Oc2ccccc2)n1 [Compound 272, N-(3-aminophenyl)sulfonyl-6-tert-butyl-2-phenoxy-pyridine-3-carboxamide] |
| +++ (“+++” means <3 uM) | Cc1cc(C)c(Oc2nc(NC(C)(C)C)ccc2C(=O)NS(=O)(=O)c2cccc(N)n2)c(C)c1 [Compound 273, N-[(6-Amino-2-pyridyl)sulfonyl]-6-(tert-butylamino)-2-(2,4,6-trimethylphenoxy)pyridine-3-carboxamide] |
| +++ (“+++” means <3 uM) | Cc1ccc(-c2nc(C(C)(C)C)ccc2C(=O)NS(=O)(=O)c2cccc(N)c2)cc1C [Compound 274, N-(3-aminophenyl)sulfonyl-6-tert-butyl-2-(3,4-dimethylphenyl)pyridine-3-carboxamide] |
| +++ (“+++” means <3 uM) | Cc1cc(C)c(Oc2nc(C(C)(C)C)ccc2C(=O)NS(=O)(=O)c2cccc3[nH]ccc23)c(C)c1 [Compound 275, 6-tert-butyl-N-(1H-indol-4-ylsulfonyl)-2-(2,4,6-trimethylphenoxy)pyridine-3-carboxamide] |
| +++ (“+++” means <3 uM) | Cc1c(Cn2nc(C(C)(C)C)cc2C(=O)NS(=O)(=O)c2cccc3ccn(C)c23)cccc1C(F)(F)F [Compound 276, 5-tert-butyl-N-(1-methylindol-7-yl)sulfonyl-2-[[2-methyl-3-(trifluoromethyl)phenyl]methyl]pyrazole-3-carboxamide] |
| +++ (“+++” means <3 uM) | Cc1cccc(C)c1Cn1nc(-c2ccccc2OC(C)C)cc1C(=O)NS(=O)(=O)c1ccccc1 [Compound 277, N-(benzenesulfonyl)-2-[(2,6-dimethylphenyl)methyl]-5-(2-isopropoxyphenyl)pyrazole-3-carboxamide] |
| ++ (“++” means between 3 uM and 10 uM) | Cc1cc(C)c(Cn2nc(OC(C)c3ccccc3)cc2C(=O)NS(=O)(=O)c2cccc(N)c2)c(C)c1 (stereo not drawn) [Compound 278, N-(3-aminophenyl)sulfonyl-5-(1-phenylethoxy)-2-[(2,4,6-trimethylphenyl)methyl]pyrazole-3-carboxamide] |

| EC30 | SMILES |
| --- | --- |
| +++ (“+++” means <3 uM) | CCOc1cccc(-c2cc(C(=O)NS(=O)(=O)c3ccccc3)n(Cc3c(C)cccc3C)n2)c1 [Compound 280, N-(benzenesulfonyl)-2-[(2,6-dimethylphenyl)methyl]-5-(3-ethoxyphenyl)pyrazole-3-carboxamide] |
| +++ (“+++” means <3 uM) | Cc1cc(C)c(Oc2nc(-c3ccc(Cl)c(OC(C)C)c3)ccc2C(=O)NS(=O)(=O)c2cccc(N)n2)c(C)c1 [Compound 281, N-[(6-amino-2-pyridyl)sulfonyl]-6-(4-chloro-3-isopropoxy-phenyl)-2-(2,4,6-trimethylphenoxy)pyridine-3-carboxamide] |
| ++ (“++” means between 3 uM and 10 uM) | Cc1cccc(-c2nc(C(C)(C)C)ccc2C(=O)NS(=O)(=O)c2cccc(N)c2)c1 [Compound 282, N-(3-aminophenyl)sulfonyl-6-tert-butyl-2-(m-tolyl)pyridine-3-carboxamide] |
| +++ (“+++” means <3 uM) | Cc1cc(C)c(Oc2nc(C(C)(C)C)ccc2C(=O)NS(=O)(=O)c2ccnc(N)c2)c(C)c1 [Compound 283, N-[(2-amino-4-pyridyl)sulfonyl]-6-tert-butyl-2-(2,4,6-trimethylphenoxy)pyridine-3-carboxamide] |
| +++ (“+++” means <3 uM) | Cc1cc(C)c(Oc2nc(-c3ccoc3)ccc2C(=O)NS(=O)(=O)c2cccc(N)n2)c(C)c1 [Compound 284, N-[(6-amino-2-pyridyl)sulfonyl]-6-(3-furyl)-2-(2,4,6-trimethylphenoxy)pyridine-3-carboxamide] |
| +++ (“+++” means <3 uM) | Cc1cc(C)c(Oc2nc3c(cc2C(=O)NS(=O)(=O)c2cccc(N)n2)CCCC3)c(C)c1 [Compound 285, N-[(6-amino-2-pyridyl)sulfonyl]-2-(2,4,6-trimethylphenoxy)-5,6,7,8-tetrahydroquinoline-3-carboxamide] |
| +++ (“+++” means <3 uM) | Cc1cccc(C)c1Oc1nc(C(C)(C)C)ccc1C(=O)NS(=O)(=O)c1cccc(N)c1 [Compound 286, N-(3-aminophenyl)sulfonyl-6-tert-butyl-2-(2,6-dimethylphenoxy)pyridine-3-carboxamide] |
| +++ (“+++” means <3 uM) | CC(C1CCCCC1)n1nc(C(C)(C)C)cc1C(=O)NS(=O)(=O)c1cccc(N)c1 (stereo not drawn) [Compound 287, N-(3-aminophenyl)sulfonyl-5-tert-butyl-2-(1-cyclohexylethyl)pyrazole-3-carboxamide] |
| +++ (“+++” means <3 uM) | Cc1ccc(-c2nc(C(C)(C)C)ccc2C(=O)NS(=O)(=O)c2ccc(C#N)cc2)cc1 [Compound 288, 6-tert-butyl-N-(4-cyanophenyl)sulfonyl-2-(p-tolyl)pyridine-3-carboxamide] |
| +++ (“+++” means <3 uM) | CNc1cccc(S(=O)(=O)NC(=O)c2ccc(C(C)(C)C)nc2Oc2c(C)cc(C)cc2C)c1 [Compound 289, 6-tert-butyl-N-[3-(methylamino)phenyl]sulfonyl-2-(2,4,6-trimethylphenoxy)pyridine-3-carboxamide] |
| +++ (“+++” means <3 uM) | COc1cccc2c1cc(C(=O)NS(=O)(=O)c1ccccc1)n2Cc1c(C)cccc1C [Compound 290, N-(benzenesulfonyl)-1-[(2,6-dimethylphenyl)methyl]-4-methoxy-indole-2-carboxamide] |
| ++ (“++” means between 3 uM and 10 uM) | Cc1cc(C)c(Cn2c(C(=O)NS(=O)(=O)c3cccc(N)c3)cc3cc(C#N)ccc32)c(C)c1 [Compound 291, N-(3-aminophenyl)sulfonyl-5-cyano-1-[(2,4,6-trimethylphenyl)methyl]indole-2-carboxamide] |
| +++ (“+++” means <3 uM) | Cc1cc(C)c(Oc2nc(C(C)(C)C)ccc2C(=O)NS(=N)(=O)c2cccc(N)c2)c(C)c1 (stereo not drawn) [Compound 292, N-[(3-Aminophenyl)sulfonimidoyl]-6-tert-butyl-2-(2,4,6-trimethylphenoxy)pyridine-3-carboxamide] |
| +++ (“+++” means <3 uM) | Cc1cc(C)c(Cn2nc(-c3cccc(C)c3F)cc2C(=O)NS(=O)(=O)c2cccc(N)c2)c(C)c1 [Compound 293, N-(3-aminophenyl)sulfonyl-5-(2-fluoro-3-methyl-phenyl)-2-[(2,4,6-trimethylphenyl)methyl]pyrazole-3-carboxamide] |
| +++ (“+++” means <3 uM) | Cc1cc(C)c(Oc2nc(C(C)(C)C)ccc2C(=O)NS(=O)(=O)c2cccc(N)c2)c(C)c1 [Compound 294, N-(3-aminophenyl)sulfonyl-6-tert-butyl-2-(2,4,6-trimethylphenoxy)pyridine-3-carboxamide] |
| ++ (“++” means between 3 uM and 10 uM) | CC(C)(C)c1cc(C(=O)NS(=O)(=O)c2cccc(N)c2)n(Cc2cccc3ccccc23)n1 [Compound 295, N-(3-aminophenyl)sulfonyl-5-tert-butyl-2-(1-naphthylmethyl)pyrazole-3-carboxamide] |

| SMILES | EC30 |
| --- | --- |
| Cc1cc(C)c(Oc2nc(-c3cc(OCC(C)C)ccc3F)ccc2C(=O)NS(=O)(=O)c2ccc[nH]c2=O)c(C)c1 [Compound 279, 6-(2-fluoro-5-isobutoxy-phenyl)-N-[(2-oxo-1H-pyridin-3-yl)sulfonyl]-2-(2,4,6-trimethylphenoxy)pyridine-3-carboxamide] | +++ (“+++” means <3 uM) |
